From patent publication US8461170B2, “Chemical compounds” (Astrazeneca AB, priority 2010, dated 2013)
Read-outs that look alike come from different tables or passages of the source.

Columns and labels:
[1] = biological target: T1, human ALK (Homo sapiens, UniProt Q9UM73); assay: ALK kinase mobility shift assay (Caliper LC3000); format: biochemical; conditions: ATP 30 μM (Km) or 5 mM, not specified which
T1 construct: GST (N); purchased Invitrogen, Carlsbad, Calif; (or prepared by AstraZeneca); host or cells: insect cells
Experimental: ALK kinase activity was determined by measuring the kinase's ability to phosphorylate a tyrosine residue within a peptide substrate using a mobility shift assay on a Caliper LC3000 reader (Caliper Life Sciences, Hopkinton, Mass.), which measures fluorescence of the phosphorylated and unphosphorylated substrate and calculates a ratiometric value to determine percent turnover.
To measure ALK kinase activity, the ALK enzyme used was N-terminal GST-tagged, recombinant, human ALK, amino acids 1058-1620 (Genbank Accession number NP_004295) expressed in insect cells and activated in-vitro via autophosphorylation. This was either purchased from a commercially available source (Invitrogen, Carlsbad, Calif.) or prepared by AstraZeneca. The kinase was incubated with a FAM labeled SRCtide substrate (5FAM-GEEPLYWSFPAKKK-NH2, AnaSpec, Fremont, Calif.), 30 μM adenosine triphosphate (ATP, at Km concentration) or 5 mM ATP, 50 mM HEPES buffer (pH 7.3), 1 mM DTT, 0.01% Tween 20, 50 μg/ml BSA and 10 mM MgCl2 for 90 minutes at room temperature. After this time, the kinase reaction was stopped by adding quenching buffer containing final concentrations of 36 mM ethylenediaminetetraacetic acid (EDTA), 65 mM HEPES buffer (pH 7.3), 0.2% Coatin Reagent 3 (Caliper Life Sciences, Hopkinton, Mass.), and 0.003% Tween 20. The reaction was performed in 384 well microtitre plates and the reaction products were detected using the Caliper LC3000 Reader in the presence of separation buffer consisting of 100 mM HEPES (pH 7.3), 15.8 mM EDTA, 0.1% Coatin Reagent 3 (Caliper, Mass.), 0.015% Brij-35, 5% DMSO, and 5.6 mM MgCl2. The separation conditions set up on the Caliper LC3000 were −1.7 PSI, −400V upstream voltage, −2000V downstream voltage, 0.2 second sample sip, 45 second post sip, and 150 seconds final delay. The percentage of inhibition of ALK enzyme activity by compounds were measured based on Max signals (DMSO control) and Min signals (EDTA control) in the plates. Data was graphed and IC50s calculated by IDBS ActivityBase program.

[2] = biological target: ALK (h) (Homo sapiens, UniProt Q9UM73); assay: alternate ALK protocol (33P-ATP filter-binding radiometric assay); format: biochemical; conditions: 250 μM KKKSPGEYVNIEFG substrate, [γ-33P-ATP], 40 minutes at room temperature, read-out: ALK inhibitory activities (IC50s (μM))
Experimental: Examples 1, 9 and 10 were additionally tested using an alternate ALK protocol as follows: ALK (h) was incubated with 8 mM MOPS pH 7.0, 0.2 mM EDTA, 250 μM KKKSPGEYVNIEFG, 10 mM MgAcetate and [γ-33P-ATP] (specific activity approx. 500 cpm/pmol, concentration as required). The reaction was initiated by the addition of the MgATP mix. After incubation for 40 minutes at room temperature, the reaction was stopped by the addition of 3% phosphoric acid solution. 10 μL of the reaction was spotted onto a P30 filtermat and washed three times for 5 minutes in 75 mM phosphoric acid and once in methanol prior to drying and scintillation counting. When tested in the assay described above, Examples 1, 9 and 10 each had ALK inhibitory activities (IC50s (μM)) of 0.004, 0.019, and 0.006, respectively.

[3] = cumulative geometric means including test re-runs, some obtained since the priority filings, read-out: ALK Enzyme IC50 (μM)**
[4] = geometric means of multiple test runs, as presented in the priority filings, read-out: ALK Enzyme IC50 (μM)*

T1 sequence (Q9UM73 1058-1620): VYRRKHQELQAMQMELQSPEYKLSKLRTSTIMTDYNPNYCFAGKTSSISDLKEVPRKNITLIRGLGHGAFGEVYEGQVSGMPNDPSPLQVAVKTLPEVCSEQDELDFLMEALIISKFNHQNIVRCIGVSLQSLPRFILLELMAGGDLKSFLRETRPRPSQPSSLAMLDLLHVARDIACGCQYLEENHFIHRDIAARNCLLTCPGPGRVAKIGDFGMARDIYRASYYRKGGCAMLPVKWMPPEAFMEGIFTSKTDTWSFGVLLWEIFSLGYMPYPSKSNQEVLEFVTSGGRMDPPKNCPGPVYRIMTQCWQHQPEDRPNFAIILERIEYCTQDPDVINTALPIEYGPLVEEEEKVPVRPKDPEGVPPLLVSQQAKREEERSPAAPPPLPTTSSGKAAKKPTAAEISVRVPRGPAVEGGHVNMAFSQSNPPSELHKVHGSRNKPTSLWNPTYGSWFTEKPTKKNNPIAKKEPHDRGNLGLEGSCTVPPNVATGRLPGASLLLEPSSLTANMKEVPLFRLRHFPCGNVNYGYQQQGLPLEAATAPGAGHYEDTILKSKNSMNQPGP
Chain of ALK (h) (Q9UM73 19-1620): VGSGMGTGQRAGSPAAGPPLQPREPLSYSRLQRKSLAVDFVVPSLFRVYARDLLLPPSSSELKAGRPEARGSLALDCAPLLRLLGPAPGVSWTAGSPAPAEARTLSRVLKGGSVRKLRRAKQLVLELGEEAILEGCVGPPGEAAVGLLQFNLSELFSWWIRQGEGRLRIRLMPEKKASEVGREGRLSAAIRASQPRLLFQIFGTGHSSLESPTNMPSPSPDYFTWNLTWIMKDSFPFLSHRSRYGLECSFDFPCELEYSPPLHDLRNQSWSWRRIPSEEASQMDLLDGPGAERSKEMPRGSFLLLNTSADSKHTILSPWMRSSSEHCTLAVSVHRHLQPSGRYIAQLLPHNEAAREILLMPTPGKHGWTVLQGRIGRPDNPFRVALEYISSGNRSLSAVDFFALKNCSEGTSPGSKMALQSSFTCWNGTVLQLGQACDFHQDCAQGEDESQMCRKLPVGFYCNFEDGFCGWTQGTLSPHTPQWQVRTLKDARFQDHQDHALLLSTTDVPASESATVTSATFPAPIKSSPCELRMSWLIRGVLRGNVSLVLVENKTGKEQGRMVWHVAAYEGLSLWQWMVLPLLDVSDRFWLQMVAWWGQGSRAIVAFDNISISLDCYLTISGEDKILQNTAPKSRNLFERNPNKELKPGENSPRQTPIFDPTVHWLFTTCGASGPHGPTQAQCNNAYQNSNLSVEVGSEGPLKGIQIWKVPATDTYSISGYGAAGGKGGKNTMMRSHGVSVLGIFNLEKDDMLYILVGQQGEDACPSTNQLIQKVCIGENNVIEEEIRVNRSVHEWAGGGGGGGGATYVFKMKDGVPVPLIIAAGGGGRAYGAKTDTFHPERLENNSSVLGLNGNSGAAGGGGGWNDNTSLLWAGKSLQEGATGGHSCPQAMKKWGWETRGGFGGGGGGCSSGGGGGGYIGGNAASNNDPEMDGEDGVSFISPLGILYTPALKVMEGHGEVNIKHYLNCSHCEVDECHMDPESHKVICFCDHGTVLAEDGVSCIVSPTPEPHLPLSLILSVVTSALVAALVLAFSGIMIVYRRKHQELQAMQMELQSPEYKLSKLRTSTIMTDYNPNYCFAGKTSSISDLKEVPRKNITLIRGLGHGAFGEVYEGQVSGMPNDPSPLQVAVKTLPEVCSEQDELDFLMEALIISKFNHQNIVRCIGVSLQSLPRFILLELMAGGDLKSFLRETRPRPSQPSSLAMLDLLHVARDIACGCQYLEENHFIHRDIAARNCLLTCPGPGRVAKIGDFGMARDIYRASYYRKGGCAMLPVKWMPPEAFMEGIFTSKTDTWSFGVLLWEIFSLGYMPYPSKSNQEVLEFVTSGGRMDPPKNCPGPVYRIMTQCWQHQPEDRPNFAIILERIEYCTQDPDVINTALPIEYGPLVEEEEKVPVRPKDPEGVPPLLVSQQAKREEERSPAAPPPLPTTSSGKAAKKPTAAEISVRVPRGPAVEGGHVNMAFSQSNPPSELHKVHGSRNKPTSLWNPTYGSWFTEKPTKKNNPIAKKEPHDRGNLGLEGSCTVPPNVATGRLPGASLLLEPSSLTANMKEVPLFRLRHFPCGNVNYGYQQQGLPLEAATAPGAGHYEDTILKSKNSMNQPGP

| SMILES | IC50 [1, 3] | IC50 [1, 4] | IC50 [2] |
| --- | --- | --- | --- |
| COc1cc(N2CCC(N)CC2)ccc1Nc1ncc(Cl)c(-c2c[nH]c3ccccc23)n1 [Example 1, N-(4-(4-Aminopiperidin-1-yl)-2-methoxyphenyl)-5-chloro-4-(1H-indol-3-yl)pyrimidin-2-amine] | 0.021 µM | 0.015 µM | 0.004 µM |
| COc1cc(N2CCC(N3CCN(C)CC3)CC2)ccc1Nc1ncc(Cl)c(-c2c[nH]c3ccccc23)n1 [Example 10, 5-Chloro-4-(1H-indol-3-yl)-N-(2-methoxy-4-(4-(4-methylpiperazin-1-yl)piperidin-1-yl)phenyl)pyrimidin-2-amine] | – | 0.02 µM | 0.006 µM |
| COc1cc(N2CCC(N3CCN(C)CC3)CC2)ccc1Nc1ncc(C)c(-c2c[nH]c3ccccc23)n1 [Example 9, 4-(1H-Indol-3-yl)-N-(2-methoxy-4-(4-(4-methylpiperazin-1-yl)piperidin-1-yl)phenyl)-5-methylpyrimidin-2-amine] | 0.068 µM | 0.05 µM | 0.019 µM |
| COc1cc(N2CCC(NC3COC3)CC2)ccc1Nc1ncc(Cl)c(-c2c[nH]c3ccccc23)n1 [Example 26, 5-Chloro-4-(1H-indol-3-yl)-N-(2-methoxy-4-(4-(oxetan-3-ylamino)piperidin-1-yl)phenyl)pyrimidin-2-amine] | – | 0.113 µM | – |
| COc1cc(N2CCC(N3CCN(C)CC3)CC2)c(F)cc1Nc1ncc(Cl)c(-c2c[nH]c3ccccc23)n1 [Example 39, 5-chloro-N-[5-fluoro-2-methoxy-4-[4-(4-methylpiperazin-1-yl)-1-piperidyl]phenyl]-4-(1H-indol-3-yl)pyrimidin-2-amine] | – | 0.225 µM | – |
| COc1cc(P2(=O)CCC(N)CC2)ccc1Nc1ncc(Cl)c(-c2c[nH]c3ccccc23)n1 (single isomer, unassigned) [Example 42, N-[4-(4-amino-1-oxidophosphinan-1-yl)-2-methoxyphenyl]-5-chloro-4-(1H-indol-3-yl)pyrimidin-2-amine] | 0.083 µM | – | – |
| COc1cc(N2CCC(N)C(F)C2)ccc1Nc1ncc(Cl)c(-c2c[nH]c3ccccc23)n1 (single isomer, unassigned) [Example 46, (trans)-N-(4-(4-amino-3-fluoropiperidin-1-yl)-2-methoxyphenyl)-5-chloro-4-(1H-indol-3-yl)pyrimidin-2-amine] | 0.039 µM | – | – |
| COc1cc(N2CCC(N3CCN(C)CC3)CC2)c(Cl)cc1Nc1ncc(Cl)c(-c2c[nH]c3ccccc23)n1 [Example 40, 5-chloro-N-[5-chloro-2-methoxy-4-[4-(4-methylpiperazin-1-yl)-1-piperidyl]phenyl]-4-(1H-indol-3-yl)pyrimidin-2-amine] | – | 0.198 µM | – |
| COc1cc(N2CCC(N3CCN(C)CC3)CC2)ccc1Nc1ncc(Br)c(-c2c[nH]c3ccccc23)n1 [Example 27] | – | 0.033 µM | – |
| COc1cc(N2CCC(N(C)C)CC2)ccc1Nc1ncc(C(F)(F)F)c(-c2c[nH]c3ccccc23)n1 [Example 29, N-(4-(4-(dimethylamino)piperidin-1-yl)-2-methoxyphenyl)-4-(1H-indol-3-yl)-5-(trifluoromethyl)pyrimidin-2-amine] | – | 0.021 µM | – |
| COc1cc(N2CCC(N)C(F)C2)ccc1Nc1ncc(Cl)c(-c2c[nH]c3ccccc23)n1 (single isomer, unassigned) [Example 51, (cis)-N-(4-(4-amino-3-fluoropiperidin-1-yl)-2-methoxyphenyl)-5-chloro-4-(1H-indol-3-yl)pyrimidin-2-amine] | 0.031 µM | – | – |
| COc1cc(N2CCC(N3CCN(C)CC3)CC2)c(F)cc1Nc1ncc(F)c(-c2c[nH]c3ccccc23)n1 [Example 37, 5-Fluoro-N-[5-fluoro-2-methoxy-4-[4-(4-methylpiperazin-1-yl)-1-piperidyl]phenyl]-4-(1H-indol-3-yl)pyrimidin-2-amine] | – | 0.244 µM | – |
| COc1cc(N2CCC(N3CCN(C)CC3)CC2)ccc1Nc1ncc(C#N)c(-c2c[nH]c3ccccc23)n1 [Example 28, 4-(1H-Indol-3-yl)-2-(2-methoxy-4-(4-(4-methylpiperazin-1-yl)piperidin-1-yl)phenylamino)pyrimidine-5-carbonitrile] | – | 0.024 µM | – |
| COc1cc(N2CCC(N(C)C)CC2)c(C)cc1Nc1ncc(Cl)c(-c2c[nH]c3ccccc23)n1 [Example 16, 5-Chloro-N-(4-(4-(dimethylamino)piperidin-1-yl)-2-methoxy-5-methylphenyl)-4-(1H-indol-3-yl)pyrimidin-2-amine] | – | 0.019 µM | – |
| COc1cc(N2CCC(N3CCN(C)CC3)CC2)ccc1Nc1ncc(F)c(-c2cn(C)c3ccccc23)n1 [Example 36, 5-fluoro-N-(2-methoxy-4-(4-(4-methylpiperazin-1-yl)piperidin-1-yl)phenyl)-4-(1-methyl-1H-indol-3-yl)pyrimidin-2-amine] | – | 1.48 µM | – |

Continued by falling IC50 [1, 4], values first:

| IC50 [1, 3] | IC50 [1, 4] | IC50 [2] | SMILES |
| --- | --- | --- | --- |
| – | 0.235 µM | – | COc1cc(N2CCC(N3CCN(S(C)(=O)=O)CC3)CC2)ccc1Nc1ncc(Cl)c(-c2c[nH]c3ccccc23)n1 [Example 21, 5-Chloro-4-(1H-indol-3-yl)-N-(2-methoxy-4-{4-[4-(methylsulfonyl)piperazin-1-yl]piperidin-1-yl}phenyl)pyrimidin-2-amine] |
| 0.136 µM | 0.088 µM | – | CNC1CCN(c2ccc(Nc3ncc(Cl)c(-c4c[nH]c5ccccc45)n3)c(OC)c2)CC1(C)C (stereo not shown) [Example 31, 5-chloro-N-(4-(3,3-dimethyl-4-(methylamino)piperidin-1-yl)-2-methoxyphenyl)-4-(1H-indol-3-yl)pyrimidin-2-amine] |
| – | 0.057 µM | – | COc1cc(N2CCC(N3CC[C@@H](F)C3)CC2)ccc1Nc1ncc(Cl)c(-c2c[nH]c3ccccc23)n1 [Example 22, 5-Chloro-N-(4-{4-[(3R)-3-fluoropyrrolidin-1-yl]piperidin-1-yl}-2-methoxyphenyl)-4-(1H-indol-3-yl)pyrimidin-2-amine] |
| – | 0.029 µM | – | COc1cc(N2CCC(NCCO)CC2)ccc1Nc1ncc(Cl)c(-c2c[nH]c3ccccc23)n1 [Example 20, 2-(1-(4-(5-Chloro-4-(1H-indol-3-yl)pyrimidin-2-ylamino)-3-methoxyphenyl)piperidin-4-ylamino)ethanol] |
| – | 0.027 µM | – | COc1cc(N2CCC(N)CC2)c(C)cc1Nc1ncc(Cl)c(-c2c[nH]c3ccccc23)n1 [Example 18, N-(4-(4-Aminopiperidin-1-yl)-2-methoxy-5-methylphenyl)-5-chloro-4-(1H-indol-3-yl)pyrimidin-2-amine] |
| 0.03 µM | 0.025 µM | – | COc1cc(N2CC[C@H](N)[C@H](F)C2)ccc1Nc1ncc(Cl)c(-c2c[nH]c3ccccc23)n1 [Example 33, N-(4-((3R,4S)-4-amino-3-fluoropiperidin-1-yl)-2-methoxyphenyl)-5-chloro-4-(1H-indol-3-yl)pyrimidin-2-amine] |
